The subject of assay [1] is U251 human CNS tumor cells (glioblastoma). The note with it: temozolomide 80 mg/kg/dose po q4d×3. The text has this: Tumor Model: Each animal was implanted with one million U251 human CNS tumor cells from an in vitro cell line by ic injection with a 25 gauge needle. The day of tumor implantation (May 24, 2006) was designated as day 0. A sufficient number of mice were implanted so that animals with body weights in a range as narrow as possible were selected for the trial on the day of treatment initiation (day 1 after tumor implantation). Animals were randomly assigned to the treatment groups and individually identified by earmark codes.
A portion of this solution was then diluted with the complete vehicle to achieve the lower dosing concentration of 1.2 mg/mL. […] Temozolomide (Temodar, Schering Corporation) was prepared on each day of injection in Klucel+tween 80 at a concentration of 4 mg/mL. Temozolomide was administered within 5 minutes of formulation on the basis of exact body weight using a volume of 0.2 mL/10 g of body weight.
Data Collection: Animal health surveillance was conducted and mortality data were collected daily. The animals were weighed twice weekly starting with the first day of treatment.
Study Duration: The study was terminated 100 days after tumor implantation. Any animal found moribund or whose body weight dropped below 14 g was euthanized prior to study termination.
Parameters Evaluated: Number of 100-day survivors, median day of death, and the increase in lifespan based on median day of death and expressed as a percentage (% ILS), median survival time and the % ILS based on median survival time.

The subject of assay [2] is bovine microtubule protein. In words: In vitro ED50 MT polymerization study (DAPI fluorescence tubulin assay). The class given is biochemical. The settings on record: for ED50 Compound/ED50 Paclitaxel: ratio; for EC50: tubulin polymerization, 37° C. 30 minutes, maximum assembly = 25 μM paclitaxel. As for the experimental part:
In Vitro ED50 MT Polymerization Study
In this tubulin binding assay, microtubule protein (MTP) is used as a substrate. The assay contains bovine tubulin plus microtubule associated proteins (MAP). MTP is polymerized into microtubules in the presence of DAPI (4′,6′-diamidino-2-phenylindole), a fluorescent compound. DAPI binds to tubulin; when microtubules are formed and there is an enhancement of fluorescence. The microtubule formation is measured as a function of time, using a fluorescence plate reader. […] The method used is based on the procedure published by Donna M. Barron, et al, “Fluorescence-based high-throughput assay for antimicrotuble drugs” Analytical Biochemistry, 315: 49-56, 2003, which is incorporated by reference in its entirety. The excitation wavelength, in that assay, was set at 370 nm and the emission wavelength was set at 450 nm for the DAPI experiments.
A Bio-Tek FL 600 microplate Fluorescence Reader was used to measure the relative level of fluorescence in the DAPI assay.
Assays were conducted in 96-well plates. Each well contained a total volume of 0.1 mL consisting of PEM buffer (0.1 M Pipes, 1 mM EGTA, 1 mM MgCl2, pH 6.9), 0.2 mg bovine microtubule protein, and 10 μg of DAPI. […] The final DMSO concentration was 4%. The plates were incubated at 37° C. for 30 minutes and read in a fluorescence plate reader using an excitation wavelength of 360 nm and an emission wavelength of 460 nm. Fluorescence values were corrected for the sample without compound.
Experiments were done twice in triplicate. Results were subsequently combined and fit to a non-linear regression program.

The values below come from patent US10745408B2, “Biologically active taxane analogs and methods of treatment by oral administration” (Tapestry Pharmaceuticals, Inc., priority 2007, dated 2020).

Consider `Cn1nnc2c(C(N)=O)ncn2c1=O` [temozolomide, Temozolomide], for which, in assay [1], the “ILS based on median survival time” value is 400%, the “median day of death” value was found to be 48 days, the median survival time amounted to 50 days and the “survivors day 100” value is 100 = 1).
As for `C/C(=C\c1csc(C)n1)[C@@H]1C[C@@H]2O[C@]2(C)CCC[C@H](C)[C@H](O)[C@@H](C)C(=O)C(C)(C)[C@@H](O)CC(=O)O1` [Epothilone B], in assay [2], the “ED50 Compound/ED50 Paclitaxel” value came to 1.11 and the EC50 was found to be 3.31 ± 0.51 µM.
The like results for `CC(=O)O[C@@]12CO[C@@H]1C[C@H](O)[C@@]1(C)C(=O)[C@H](O)C3=C(C)[C@@H](OC(=O)[C@H](O)[C@@H](NC(=O)OC(C)(C)C)c4ccccc4)C[C@@](O)([C@@H](OC(=O)c4ccccc4)[C@H]21)C3(C)C` [Docetaxel] were, in that order, 1.07 and 3.18 ± 0.45 µM.

By EC50 is commonly meant the concentration that produces a half-maximal response. Low values mean greater potency, high ones weaker potency.
